Experimental data as given in patent US8410310B2, “Trypsin-like serine protease inhibitors, and their preparation and use” (The Medicines Company (Leipzig) GmbH, priority 2006, dated 2013).
“And” between values parts separate entries of the source, which are not always exact repeats. Identical values can stand only once. Like-named read-outs stand apart in the source and are kept apart here.

Tests used:
Xa = Xa (Homo sapiens, UniProt P00742); assay: Determination of inhibition constants for Xa; format: biochemical
Description: (§1) The inhibitory effect for the individual enzymes was determined in analogy to a previously disclosed method (Stürzebecher et al., 1997).
(§2) For zero order kinetics, the reaction was stopped after 20 min by adding 25 μl of acetic acid (50% v/v), and the absorption at 405 nm was determined using a Microplate Reader (Multiscan Ascent, from Thermo). In the case of pseudo-first order kinetics, the reaction rates in the equilibrium state were ascertained by recording the reaction kinetics. The Ki values were ascertained either in accordance with Dixon (1953) by linear regression using a computer program or by parameter fitting in accordance with the rate equation for competitive inhibition. The Ki values are the average of at least two determinations.

Thrombin = Thrombin (Homo sapiens, UniProt P00734); assay: Determination of inhibition constants for thrombin; format: biochemical
Description: as §1, §2

Human factor XIa = biological target: T1, Human factor XIa (Homo sapiens, UniProt P03951); assay: Inhibition constants against purified human serine proteases: FXIa; format: biochemical
T1 construct: Human factor Xa, factor XIa, factor XIIa, thrombin, and plasma kallikrein were purchased; purchased Enzyme Research Laboratories (via Haemochrom, Essen)
Text: (§3) Aprotinin and tranexamic acid were purchased from SIGMA (Schnelldorf, Germany). Human factor Xa, factor XIa, factor XIIa, thrombin, and plasma kallikrein were purchased from Enzyme Research Laboratories, and human plasmin from Chromogenix (both via Haemochrom, Essen, Germany). Various synthetic peptide chromogenic substrates used for determination of inhibition constants were obtained from Pentapharm (Basel, Switzerland), Roche (Mannheim, Germany), and Chromogenix: Chromozyme PL for plasmin, S2302 for plasma kallikrein, Pefachrome FXa for factor Xa, Chromozym XII for FXIIa, Pefachrom tPA for thrombin, and Pefachrome PCa for factor XIa. […]
(§4) Inhibition of purified human serine proteases by Compound No. 3 and aprotinin was studied using the established methods described herein in Example 3 (i.e., Stürzebecher et al., 1997). […] Steady-state velocities of substrate conversion were obtained from progress curves generated by continuous monitoring of the absorbance at 405 nm with a microplate reader (Multiskan Ascent, Thermo Electron Corporation, Dreieich, Germany). […] Inhibition constants (Ki) were calculated from non-linear fits of individual data sets to the Michaelis-Menten equation for competitive inhibitors using an enzyme kinetic analysis software (SIGMA Plot® 9.0 Enzyme Kinetics Module, SSI, San Jose, Calif.). […]

[1] = biological target: T2, Human factor XIIa (alpha) (Homo sapiens, UniProt P00748); assay: Inhibition constants against purified human serine proteases: FXIIa; format: biochemical; conditions: 50 mM Tris-HCl pH 8.0, 154 mM NaCl, Chromozym XII
T2 construct: Human factor Xa, factor XIa, factor XIIa, thrombin, and plasma kallikrein were purchased; purchased Enzyme Research Laboratories (via Haemochrom, Essen)
T2 sequence (P00748 373-615 limits assumed): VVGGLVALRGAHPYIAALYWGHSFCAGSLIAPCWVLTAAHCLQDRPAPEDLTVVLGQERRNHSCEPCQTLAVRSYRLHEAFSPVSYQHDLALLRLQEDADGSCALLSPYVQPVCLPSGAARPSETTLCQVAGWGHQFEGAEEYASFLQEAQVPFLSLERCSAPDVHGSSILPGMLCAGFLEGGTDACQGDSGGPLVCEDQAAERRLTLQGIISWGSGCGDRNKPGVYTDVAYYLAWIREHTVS
T2 sequence (P00748 20-372 partner limits assumed): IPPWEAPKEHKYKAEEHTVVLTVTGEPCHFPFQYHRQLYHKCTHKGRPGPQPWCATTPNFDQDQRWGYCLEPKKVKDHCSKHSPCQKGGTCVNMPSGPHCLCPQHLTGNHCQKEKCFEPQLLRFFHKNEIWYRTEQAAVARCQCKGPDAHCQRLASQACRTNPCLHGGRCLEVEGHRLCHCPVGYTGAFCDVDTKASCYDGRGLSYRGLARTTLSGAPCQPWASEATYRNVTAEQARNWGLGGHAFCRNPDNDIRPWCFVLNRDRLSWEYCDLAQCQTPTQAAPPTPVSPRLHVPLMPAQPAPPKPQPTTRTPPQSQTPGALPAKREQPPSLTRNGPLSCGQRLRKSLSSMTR
Text: as §3, §4

[2] = Terminal half-life in rats; conditions: rat, in vivo
[3] = Terminal half-life in dogs; conditions: dog, in vivo
plasmin [4] = biological target: T3, plasmin (Homo sapiens, UniProt P00747); assay: Determination of inhibition constants for plasmin; format: biochemical; parameters: purchased Calbiochem; conditions: 25° C., substrate Chromozym PL, pH 8.0; read-out: Plasmin [Ki]
Description: as §1, §2

plasmin [5] = biological target: T3, plasmin; assay: Inhibition constants against purified human serine proteases: plasmin; format: biochemical; parameters: purchased Calbiochem; conditions: 50 mM Tris-HCl pH 8.0, 154 mM NaCl, Chromozyme PL
Text: as §3, §4

plasma kallikrein [6] = biological target: T4, plasma kallikrein (Homo sapiens, UniProt P03952); assay: Determination of inhibition constants for PK; format: biochemical; parameters: purchased Enzyme Research Lab. / Enzyme Research Laboratories; conditions: 25° C., substrate S2302, pH 8.0; read-out: PK [Ki]
Description: as §1, §2

plasma kallikrein [7] = biological target: T4, plasma kallikrein; assay: Inhibition constants against purified human serine proteases: plasma kallikrein; format: biochemical; parameters: purchased Enzyme Research Lab. / Enzyme Research Laboratories
Text: as §3, §4

trypsin = conditions: background; cited from earlier work
[8] = cited from earlier work

T4 sequence (P03952 391-638 limits assumed): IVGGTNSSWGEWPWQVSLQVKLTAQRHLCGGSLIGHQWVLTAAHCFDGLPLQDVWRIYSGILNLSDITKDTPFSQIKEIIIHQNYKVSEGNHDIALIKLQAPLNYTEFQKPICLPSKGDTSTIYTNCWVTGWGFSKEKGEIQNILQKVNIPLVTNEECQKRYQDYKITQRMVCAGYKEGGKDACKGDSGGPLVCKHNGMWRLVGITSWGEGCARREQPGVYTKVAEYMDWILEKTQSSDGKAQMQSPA
T4 sequence (P03952 20-390 partner limits assumed): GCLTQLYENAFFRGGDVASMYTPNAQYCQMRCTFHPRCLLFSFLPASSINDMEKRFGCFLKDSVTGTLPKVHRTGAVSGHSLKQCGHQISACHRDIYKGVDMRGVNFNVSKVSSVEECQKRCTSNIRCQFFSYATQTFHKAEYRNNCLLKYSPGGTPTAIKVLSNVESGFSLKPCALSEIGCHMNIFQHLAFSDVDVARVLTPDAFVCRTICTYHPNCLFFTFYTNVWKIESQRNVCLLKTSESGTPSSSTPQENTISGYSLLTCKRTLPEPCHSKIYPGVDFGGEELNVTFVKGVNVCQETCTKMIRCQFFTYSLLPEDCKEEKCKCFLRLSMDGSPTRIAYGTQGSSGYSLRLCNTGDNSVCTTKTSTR
T3 sequence (P00747 581-810 limits assumed): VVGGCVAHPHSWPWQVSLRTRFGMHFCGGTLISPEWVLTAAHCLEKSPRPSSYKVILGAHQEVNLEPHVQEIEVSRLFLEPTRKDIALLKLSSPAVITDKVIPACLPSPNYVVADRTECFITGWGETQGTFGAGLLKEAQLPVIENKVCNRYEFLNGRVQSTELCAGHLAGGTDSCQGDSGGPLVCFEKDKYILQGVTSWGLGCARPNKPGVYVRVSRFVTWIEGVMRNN
T3 sequence (P00747 97-580 partner limits assumed): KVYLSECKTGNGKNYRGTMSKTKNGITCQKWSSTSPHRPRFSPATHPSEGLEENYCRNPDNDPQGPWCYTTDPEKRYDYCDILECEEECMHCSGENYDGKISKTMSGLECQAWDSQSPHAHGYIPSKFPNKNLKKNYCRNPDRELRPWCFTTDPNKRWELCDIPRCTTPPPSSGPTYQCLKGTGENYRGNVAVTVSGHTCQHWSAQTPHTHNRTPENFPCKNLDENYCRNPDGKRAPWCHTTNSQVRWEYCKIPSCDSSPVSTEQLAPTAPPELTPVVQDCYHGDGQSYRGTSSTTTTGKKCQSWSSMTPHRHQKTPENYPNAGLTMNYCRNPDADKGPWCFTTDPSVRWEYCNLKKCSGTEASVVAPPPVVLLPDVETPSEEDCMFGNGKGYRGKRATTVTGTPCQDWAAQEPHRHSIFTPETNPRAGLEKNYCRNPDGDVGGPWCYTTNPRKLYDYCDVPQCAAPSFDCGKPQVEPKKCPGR
T1 sequence (P03951 388-625 limits assumed): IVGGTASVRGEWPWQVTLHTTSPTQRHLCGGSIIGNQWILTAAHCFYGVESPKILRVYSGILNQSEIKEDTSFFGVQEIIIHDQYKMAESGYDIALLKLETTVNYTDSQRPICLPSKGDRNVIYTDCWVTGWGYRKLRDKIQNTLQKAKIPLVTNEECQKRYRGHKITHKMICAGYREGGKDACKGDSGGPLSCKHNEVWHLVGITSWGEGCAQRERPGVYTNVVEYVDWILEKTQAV
T1 sequence (P03951 19-387 partner limits assumed): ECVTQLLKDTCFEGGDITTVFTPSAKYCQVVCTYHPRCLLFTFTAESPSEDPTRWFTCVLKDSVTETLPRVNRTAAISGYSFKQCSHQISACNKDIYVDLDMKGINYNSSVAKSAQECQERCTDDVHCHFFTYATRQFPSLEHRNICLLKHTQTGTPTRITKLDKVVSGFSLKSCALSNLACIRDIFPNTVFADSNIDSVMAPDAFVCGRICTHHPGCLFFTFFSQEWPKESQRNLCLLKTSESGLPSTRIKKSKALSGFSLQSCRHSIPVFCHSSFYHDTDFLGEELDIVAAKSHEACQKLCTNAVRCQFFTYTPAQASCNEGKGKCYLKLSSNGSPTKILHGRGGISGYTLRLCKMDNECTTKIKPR
Chain of Xa (P00742 235-488 limits assumed): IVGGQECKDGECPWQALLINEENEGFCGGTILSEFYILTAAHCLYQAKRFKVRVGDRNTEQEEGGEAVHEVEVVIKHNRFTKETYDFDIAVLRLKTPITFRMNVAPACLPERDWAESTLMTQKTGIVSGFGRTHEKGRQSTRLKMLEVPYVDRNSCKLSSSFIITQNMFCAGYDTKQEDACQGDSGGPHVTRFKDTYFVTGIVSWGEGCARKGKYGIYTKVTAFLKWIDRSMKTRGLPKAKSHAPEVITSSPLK
Chain of Xa (P00742 41-179 limits assumed): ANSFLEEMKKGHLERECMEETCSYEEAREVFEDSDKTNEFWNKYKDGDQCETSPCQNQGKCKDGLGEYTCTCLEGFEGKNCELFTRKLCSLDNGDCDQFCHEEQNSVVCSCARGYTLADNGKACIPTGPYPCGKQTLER

Row | Compound | Ki (Xa) | Ki (Thrombin) | Ki (Human factor XIa; 50 mM Tris-HCl pH 8.0, 154 mM NaCl, Pefachrome PCa) | stronger inhibition of FXIa than aprotinin (Human factor XIa; versus aprotinin) | Ki [1] | half-life [2] | half-life [3] | Ki (plasmin [4]) | Ki (plasmin [5]) | Ki (plasma kallikrein [6]) | Ki (plasma kallikrein [7]; 50 mM Tris-HCl pH 8.0, 154 mM NaCl, S2302) | stronger inhibition of plasma kallikrein than aprotinin (plasma kallikrein [7]; versus aprotinin) | Ki (trypsin) | risk of myocardial infarction and apoplectic stroke ([8]; by comparison with the control groups) | number of cases of kidney damage, making dialysis necessary ([8]; comparison with ε-aminocaproic acid or tranexamic acid (Mangano et al., 2006)) | risk of an anaphylactic shock ([8]; first administration) | risk of an anaphylactic shock ([8]; repeated administration within 200 days)
1 | N=C(N)c1ccc(CNC(=O)[C@H](Cc2cccc(CN)c2)NC(=O)[C@@H](CCCc2ccccc2)NS(=O)(=O)Cc2cccc(C(=O)O)c2)cc1 [compound 3, 3-HOOC-Bzls-d-Ppg-Phe(3-Ame)-4-Amba×2 acetate] | < 100 nM | > 1000 nM | 18 ± 1 nM | 100 fold | 5200 ± 400 nM | 20 min | 20 min | < 10 nM | 2.3 nM and 2.2 nM | < 10 nM | 0.019 ± 0.003 nM | 2000 fold | – | – | – | – | –
2 | aprotinin | – | – | – | – | – | – | – | – | – | – | – | – | 0.1 nM | increased | doubling | < 0.1% | 4-5%
